Assay results reported in paper PMC3365043, “Receptor-Targeting Phthalocyanine Photosensitizer for Improving Antitumor Photocytotoxicity” (PLoS ONE, 2012).
Like-named read-outs stand apart in the source and are kept apart here.

Tests used:
HELF [1] = assay: Cellular uptake (fluorescence of cell lysate); format: cell-based, human; details: 10^−7 to 10^−4.5 M, 12 hr, 37°C, 0.2% Cremophor EL (ZnPc-COOH), mean of four experiments
Method: (§1) Aliquots of cells (2.5×10^5 per ml growth medium) were placed in 96-multiwell black opaque plates (Costa) and incubated overnight at 37°C under 5% CO2. Various concentrations (10^−7, 10^−6.5, 10^−6, 10^−5.5, 10^−5 and 10^−4.5 M) of ZnPc-GnRH conjugate (in 1% DMSO) or ZnPc-COOH (in an additional 0.2% Cremophor EL) were added and incubated with cells at 37°C. After 12 hr incubation, the exponentially growing cells were washed with sterile PBS before lysis with NaOH (0.1 N, 0.2 ml with 1% SDS) to give a homogenous solution. The fluorescence of the cell extract was measured on a microplate reader (Synergy 4, BioTek Instruments) with λex = 610 nm and λem = 690 nm. The concentration of cellular protein was determined with a BCA Protein Assay Kit (BioTeke Corporation, Beijing, China). Standard curves were made with cell lysates treated as above with known added amounts of bovine serum albumin. Results are expressed as nmol photosensitizer per mg cell protein.

HepG2 [2] = assay: Cellular uptake (fluorescence of cell lysate); format: cell-based, human; details: 10^−7 to 10^−4.5 M, 12 hr, 37°C, 0.2% Cremophor EL (ZnPc-COOH), mean of four experiments
Method: as §1

MCF-7 [3] = assay: Cellular uptake (fluorescence of cell lysate); details: 10^−7 to 10^−4.5 M, 12 hr, 37°C, 1% DMSO (ZnPc-GnRH) or 0.2% Cremophor EL (ZnPc-COOH), lysate fluorescence λex 610/λem 690 nm, mean of four experiments
Method: as §1

MDA-MB-231 [4] = assay: Cellular uptake (fluorescence of cell lysate); details: 10^−7 to 10^−4.5 M, 12 hr, 37°C, 1% DMSO (ZnPc-GnRH) or 0.2% Cremophor EL (ZnPc-COOH), mean of four experiments
Method: as §1

S180 tumor-bearing mice = details: cited from earlier work
Description: We previously described a peptide-conjugated photosensitizer (ZnPc-(Lys)5), zinc phthalocyanine (ZnPc) conjugated with pentalysine peptidyl moiety, and reported its in vitro and in vivo efficacy. The pentalysine peptide renders water solubility of ZnPc that is otherwise not soluble in physiological condition and requires specialized formulation with, e.g., Cremophor EL. […] Herein we report the synthesis and the physicochemical characterization of this ZnPc-GnRH conjugate, along with the evaluation of its photodynamic activity at cellular level. […] This work p ...

[5] = in DMSO; ref 20; cited from earlier work
Description: Table 1 Photophysical parameters of ZnPc-GnRH conjugate in DMSO compared to that of ZnPc in DMSO. | column: Фf

[6] = in DMSO, cited from earlier work
Description: Table 1 Photophysical parameters of ZnPc-GnRH conjugate in DMSO compared to that of ZnPc in DMSO. | column: τs (ns)

[7] = Fluorescence quantum yield, comparative method with ZnPc as standard; format: physicochemical; details: in DMSO, ZnPc standard (Фf 0.2)
Method: Fluorescence quantum yield (Фf) of ZnPc-GnRH conjugate was measured by a comparative method using ZnPc as a standard (Фf (ZnPc) in DMSO = 0.2) using the Eq. (1) [drawing 1] (1) where Фf and Ф0 are fluorescence quantum yields of the conjugate and standard, respectively. Au and A0 are absorbances of the conjugate and standard, respectively. Fu and F0 are areas under the emission curves of the conjugate and standard, respectively. nu and n0 are refractive indices of the solvents used for the conjugate and standard, respectively. The fluorescence of the conjugate and standard were measured on a Cary Eclipse Fluorescence spectrophotometer (Varian, Inc., Walnut Creek, CA).

[8] = Fluorescence decay time by time-correlated single photon counting; format: physicochemical; details: in DMSO, 300 K, fitted decay curve
Method: Fluorescence decay time (τs) of ZnPc-GnRH conjugate was measured by time-correlated single photon counting experiment of fluorescence excited with a 1.2 ns pulse laser diode at 460 nm, performed on an Edinburgh Instruments FLS920 spectrofluorometer (Livingston, UK) at 300 K. Fluorescence lifetimes were estimated by fitting the decay data using an interactive deconvolution procedure based on Marquardt algorithm with software supplied by OriginLab.

[9] = Singlet oxygen quantum yield determination (DPBF decay); format: physicochemical; details: in DMSO; 0.5 µM; DPBF decay at 417 nm; 670 nm laser at 80 mW cm−2; ZnPc reference (0.67); error less than 10%
Method: The PDT effect of ZnPc type photosensitizer is usually mediated by type II mechanism involving singlet oxygen (^1O2) as major cytotoxic agent. The quantum yield of ^1O2 generation by ZnPc-GnRH was determined by comparing with the un-substituted zinc phthalocyanine (ZnPc) as reference, which has a quantum yield of 0.67 in DMSO [21]. Briefly, a 2 ml DMSO solution of the mixture of the ZnPc-GnRH conjugate (0.5 µM) and 1,3-diphenylisobenzofuran (DPBF, a scavenger molecule for ^1O2), was introduced to the spectrophotometric cell of 1 cm path length and illuminated with a laser light (670 nm at 80 mW cm^−2) in the presence of air (without degassing). The DPBF decay at 417 nm was monitored every 5 s. The concentration of DPBF was kept lower than 3×10^−5 M during the experiment to avoid chain reactions induced by DPBF in the presence of ^1O2. The quantum yield measurement has an error of less than 10%.

MDA-MB-231 [10] = test system: MDA-MB-231
Method: (§2) The cell lines we used in the current study were human breast cancer cell lines (MDA-MB-231 and MCF-7), human hepatoblastoma cell line (HepG2) and human embryo lung fibroblasts (HELF). All these cell lines were purchased from American Type Culture Collection (ATCC, Manassas, VA, USA).
(§3) MDA-MB-231 and MCF-7 cells were maintained routinely in Dulbecco’s modified Eagle’s medium (DMEM) supplemented with 10% fetal calf serum (FCS) and antibiotics. HepG2 and HELF cells were grown in RPMI-1640 supplemented with 10% FCS and antibiotics. All cells were kept at 37°C in a humidified incubator with 5% CO2 atmosphere. The viability of cells was determined by Trypan blue dye exclusion. Cells were maintained in logarithmic phase with viability >95%.
(§4) Cells at a density of 2.5×10^5 per ml in a volume of 200 µl per well were placed in 96-multiwell black opaque plates and incubated overnight at 37°C under 5% CO2. […] The plates were illuminated at a light dosage of 1.5 J cm^−2 using a 670 nm SAS-DL3 medical laser (Beijing Shou’anshan Electronic Technology Co. Ltd. Beijing, China) and then returned to incubator; dark toxicity was measured in parallel. After 24 hr incubation, cell viability was measured on a microplate reader (Synergy 4, BioTek Instruments) using the AlamarBlue® fluorometric cell viability assay (BioSource International Inc., Camarillo, CA, USA) with λex 530 nm and λem 585 nm. […]

MCF-7 [11] = test system: MCF-7
Method: as §2, §3, §4

HELF [12] = test system: HELF
Method: as §2, §3, §4

HepG2 [13] = test system: HepG2
Method: as §2, §3, §4

MDA-MB-231 [14] = assay: Phototoxicity and dark toxicity, AlamarBlue cell viability; details: read-out: Phototoxicity IC50 (50% growth inhibition), 12 hr incubation, 670 nm laser, 1.5 J cm−2, viability after 24 hr
Method: as §2, §3, §4

MCF-7 [15] = assay: as above; details: read-out: Phototoxicity IC50 (50% growth inhibition), 12 hr incubation, 670 nm laser, 1.5 J cm−2, viability after 24 hr
Method: as §2, §3, §4

Method for MCF-7 cells: 200 µl of MCF-7 cells (at a density of 2.5×10^5 per ml) were seeded in each well of 96-multiwell black opaque plates and incubated overnight at 37°C under 5% CO2. After treated with or without Cetrorelix (at a concentration of 7.5×10^−7 M), a GnRH antagonist, for 12 hr at 37°C, MCF-7 cells were washed twice with sterile PBS before fresh medium was added. These exponentially growing MCF-7 cells were then allowed to incubate with ZnPc-GnRH conjugate (at a concentration of 5×10^−6 M) for various time periods (5, 10, 20, 40, 80, 120 and 180 min) before the cellular uptakes were measured at different incubation time points as described above to determine the cellular uptake curves.

Mono-substituted β-carboxyphthalocyanine zinc [ZnPc-COOH]
Cellular uptake (HELF [1]): low levels of cellular uptakes
Cellular uptake (HepG2 [2]): low levels of cellular uptakes
Cellular uptake (MCF-7 [3]): low levels of cellular uptakes
Cellular uptake (MDA-MB-231 [4]): low levels of cellular uptakes

pentalysine phthalocyanine zinc [ZnPc-(Lys)5]
Selectivity for tumor over brain tissue (S180 tumor-bearing mice; S180 tumor-bearing mice): 6 fold
Selectivity for tumor over muscle tissue (S180 tumor-bearing mice; S180 tumor-bearing mice): 2 fold

[Zn+2].c1ccc2c(c1)-c1nc-2nc2[n-]c(nc3nc([n-]c4nc(n1)-c1ccccc1-4)-c1ccccc1-3)c1ccccc21 [ZnPc, Zinc phthalocyanine]
Fluorescence quantum yield (Фf) [5]: 0.20 [20]
Fluorescence decay time (τs) ([6]; ref 23): 1.22 ns
Fluorescence decay time (τs) ([6]; ref 24): 3.6 ns
Distribution in murine brain (S180 tumor-bearing mice; murine brain): very low level of distribution

CC(C)C[C@H](NC(=O)CNC(=O)[C@H](Cc1ccc(O)cc1)NC(=O)[C@H](CO)NC(=O)[C@H](Cc1c[nH]c2ccccc12)NC(=O)[C@H](Cc1c[nH]cn1)NC(=O)[C@H](CCC(=O)O)NC(=O)c1ccc2c3nc4nc(nc5[nH]c(nc6nc(nc([nH]3)c2c1)-c1ccccc1-6)c1ccccc51)-c1ccccc1-4)C(=O)N[C@@H](CCCNC(=N)N)C(=O)N1CCC[C@H]1C(=O)NCC(=O)O [ZnPc-GnRH]
Fluorescence quantum yield (Фf) [7]: 0.17
Fluorescence decay time (τs) [8]: 2.7 ns
Singlet oxygen quantum yield (ФΔ) [9]: 0.73
Dark toxicity (MDA-MB-231 [10]): no obvious cellular dark toxicity
Dark toxicity (MCF-7 [11]): no obvious cellular dark toxicity
Dark toxicity (HELF [12]): no obvious cellular dark toxicity
Phototoxicity (HELF [12]; HELF, 10^−7 to 10^−4.5 M, 12 hr incubation, 670 nm, 1.5 J cm−2): no significant phototoxicity
Dark toxicity (HepG2 [13]): no obvious cellular dark toxicity
Phototoxicity (HepG2 [13]; HepG2, 10^−7 to 10^−4.5 M, 12 hr incubation, 670 nm, 1.5 J cm−2): no significant phototoxicity
Time at which cellular uptake reached the maximal level (MCF-7 cells): ~2 h
IC50 (MDA-MB-231 [14]): 1.32 µM
IC50 (MCF-7 [15]): 1.82 µM
